Data from US20200172974A1, “BIOMARKER FOR ANTI-TNF THERAPY IN RETINAL DISEASES” (HADASIT MEDICAL RESEARCH SERVICES & DEVELOPMENT LTD., priority 2017, published 2020).

What was measured:
[1] = test system: choroidal neovascularization (CNV); assay: Laser-induced model of CNV (LI-CNV); type: in vivo, Long-Evans rats; conditions: flat mounts 10 days after laser injury
Procedure: Long-Evans rats (8-12 weeks old) were used to generate LI-CNV. Animals were treated in accordance to the guidelines of ARVO. Experiments were conducted with the approval of the institutional animal care ethics committee. Before each procedure, rats were anesthetized by intraperitoneal injections of a mixture of 85% ketamine (Bedford Laboratories, Bedford, Ohio) and 15% xylazine (VMD, Arendonk, Belgium). Topical anesthesia (Oxybuprocaine HCL 0.4%; Fisher Pharmaceuticals, Tel-Aviv, Israel) was applied to each eye 10 minutes before intravitreal injections or laser photocoagulation.
Laser burns (5-7 burns per eye) were generated. Intravitreal injections of all compounds were performed using a PLI-100 Pico-Injector (Medical System Corp., Greenvale, N.Y.) two days following the laser to allow for CNV development, and every 2 days thereafter for a total of 10 days. iMfs were injected only once, two days after laser injury was performed.
Experimental groups included: 4 μl of PBS, 1 μl of 100 μg/μl infliximab, 1 μl of 100 μg/μl aflibercept, 1 μl of 100 μg/μl infliximab with 1×10^5 M(IFNγ and LPS) suspended in 4 μl of PBS; 1 μl of 100 μg/μl aflibercept with 1×10^5 M(IFNγ and LPS) suspended in 4 μl of PBS; and 1×10^5 M(IFNγ and LPS) suspended in 4 μl of PBS, for a total of 5 experimental groups and 1 control group. Each experimental group included 8 injected eyes of 4 rats. The compound dosage was previously described (Xu et al., (2008)). Antibiotic ointment (5% Chloramphenicol) was applied after every injection. Choroid-RPE and retinal flat mounts were prepared 10 days following the laser injury.
RPE-choroidal flat-mounts were fixated for one hour in 4% PFA and suspended overnight in isolectin solution (GS-Ib4 Alexa 594 staining solution, Molecular Probes, Eugene, Oreg.) containing 200 mM NaN3 and 1 mM CaCl2). Flat mounts were then washed 6 times for 20 minutes in PBS and embedded on a slide with a mounting medium. The CNV area around each laser injury was measured using the ImageJ software.

[2] = test system: choroidal sprouting (choroid-sclera complex with RPE in Matrigel); assay: Choroid-sprouting assay (CSA), ex-vivo angiogenesis assay; type: cell-based, C57/BL6J mice; conditions: fixed after 8 days
Procedure: Cytokines were added to the media based on the maximal level of each cytokine via ELISA of M(IFNγ and LPS)-derived media. Five (5) cytokines were tested (n=8; replicates for each cytokine): 0.25 ng/μl VEGF, 0.5 ng/μl IL-8, 2.5 ng/μl IL-6, 0.05 ng/μl IL-1β, and 0.8 5 ng/μl TNFα (PeproTech, Rocky Hill, N.J., USA). Anti-TNF (infliximab, 100 μg/μl Remsima, Celltrion Inc., South Korea) and anti-VEGF (Aflibercept, 40 μg/μl, Bayer Pharma AG, Berlin, Germany), with or without iMfs' supernatant were also studied in the CSA. Compounds' concentrations were based on previous studies (Grattendick et al., (2008)). Controls included medium-treated CSA and iMfs' supernatant treated CSA.
C57/BL6J 4-6 weeks old mice, treated in accordance with the guidelines of the Association for Research in Vision and Ophthalmology (ARVO), were utilized to generate the CSA. Experiments were conducted with the approval of the institutional animal care ethics committee. Five (5) minutes after injecting with ketamine, animals were evaluated for responses and euthanized by cervical dislocation. Eyes were immediately enucleated and kept in ice-cold ECGS medium containing 100 units/ml penicillin-streptomycin and 1% glutamine before dissection. A choroid-sclera complex from the mice was gently dissected along with retinal pigment epithelium (RPE). The complex was cut into 5-6 1 mm long pieces. Fragments were embedded in 30 μl of growth factor-reduced-Matrigel™ (BD Biosciences, Cat. 354230) in 24-well plates. The thickness of the Matrigel™ was approximately 0.4 mm. Plates were then incubated for 10 minutes in 37° C., in a 5% CO2 cell culture incubator without medium to solidify the Matrigel™. Five hundred (500) μl of medium containing ECGM (C-22010, Promocell, Germany) 2.5% supplement mix (C-9215, Promocell, Germany), 5% FCS, 100 units/ml penicillin-streptomycin, and 1% glutamine, was added to each well. For the experimental groups containing the iMfs' supernatant, the medium was replaced with 250 μl of iMfs' supernatant. Medium for each well was changed every 3 days, and the cultures were fixed with 4% PFA after 8 days. Cultures were viewed with an inverted phase-contrast CKX41 Olympus microscope, and images were photographed with an Olympus DP70 digital camera (Olympus, Tokyo, Japan).
ImageJ software was used for sprouting area quantification. Sprouting area was selected by the software and measured after excluding the choroid tissue. Background (control well, for each plate, supplemented with medium only) was subtracted and analysis was performed for each sample. Ratios of each well of experimental group and its relative control from the same eye were calculated and averaged with its replicates.

[3] = intravitreal injection together with 1×10^5 M(IFNγ and LPS) iMfs
[4] = intravitreal injection, substance alone, compared to PBS
[5] = substance added alone to CSA medium, cytokines at maximal level found in M(IFNγ and LPS) media, infliximab 100 μg/μl

| Substance | Mean of CNV size±SEM [1, 3] | Mean of CNV size±SEM [1, 4] | Mean of relative ratio between treated and untreated wells±SEM (sprouting area) [2, 5] | Mean of relative ratio between treated and untreated wells±SEM (sprouting area) ([2]; with M(IFNγ and LPS)s' supernatant) |
| --- | --- | --- | --- | --- |
| Aflibercept [anti-VEGF] | 0.02±0.001 | 0.024±0.002 |  |  |
| IL-1β: recombinant cytokine (PeproTech), 0.05 ng/μl |  |  | 0.8±0.2 |  |
| IL-6: recombinant cytokine (PeproTech), 2.5 ng/μl |  |  | 0.64±0.1 |  |
| IL-8: recombinant cytokine (PeproTech), 0.5 ng/μl |  |  | 0.47±0.14 |  |
| TNFα |  |  | > 1.6±0.2 |  |
| VEGF |  |  | 0.86±0.08 |  |
| infliximab [anti-TNF] | > 0.036±0.004 | 0.045±0.005 | 1.14±0.06 | > 1.06±0.04 |
